Measured values as given in patent US11472806B2, “Substituted heterocyclic compounds as allosteric modulators of group II metabotropic glutamate receptors” (Domain Therapeutics, priority 2017, dated 2022).
Counter-ions that a name gives are not always drawn.

Columns and labels:
[1] = target: T1, human mGluR3 (hmGluR3) (Homo sapiens, UniProt Q14832); experiment: Human mGluR3 positive allosteric modulator evaluation using Ca++ functional assay; type: cell-based; details: hmGluR3 transiently over-expressed in HEK-293 cells; cells stimulated by an EC50 glutamate concentration; intracellular Ca2+ (Fluo4AM, FLIPR Tetra)
T1 construct: expressed in transfected cells; host or cells: HEK-293 cells, transient co-transfection by electroporation
T1 sequence (Q14832 23-879): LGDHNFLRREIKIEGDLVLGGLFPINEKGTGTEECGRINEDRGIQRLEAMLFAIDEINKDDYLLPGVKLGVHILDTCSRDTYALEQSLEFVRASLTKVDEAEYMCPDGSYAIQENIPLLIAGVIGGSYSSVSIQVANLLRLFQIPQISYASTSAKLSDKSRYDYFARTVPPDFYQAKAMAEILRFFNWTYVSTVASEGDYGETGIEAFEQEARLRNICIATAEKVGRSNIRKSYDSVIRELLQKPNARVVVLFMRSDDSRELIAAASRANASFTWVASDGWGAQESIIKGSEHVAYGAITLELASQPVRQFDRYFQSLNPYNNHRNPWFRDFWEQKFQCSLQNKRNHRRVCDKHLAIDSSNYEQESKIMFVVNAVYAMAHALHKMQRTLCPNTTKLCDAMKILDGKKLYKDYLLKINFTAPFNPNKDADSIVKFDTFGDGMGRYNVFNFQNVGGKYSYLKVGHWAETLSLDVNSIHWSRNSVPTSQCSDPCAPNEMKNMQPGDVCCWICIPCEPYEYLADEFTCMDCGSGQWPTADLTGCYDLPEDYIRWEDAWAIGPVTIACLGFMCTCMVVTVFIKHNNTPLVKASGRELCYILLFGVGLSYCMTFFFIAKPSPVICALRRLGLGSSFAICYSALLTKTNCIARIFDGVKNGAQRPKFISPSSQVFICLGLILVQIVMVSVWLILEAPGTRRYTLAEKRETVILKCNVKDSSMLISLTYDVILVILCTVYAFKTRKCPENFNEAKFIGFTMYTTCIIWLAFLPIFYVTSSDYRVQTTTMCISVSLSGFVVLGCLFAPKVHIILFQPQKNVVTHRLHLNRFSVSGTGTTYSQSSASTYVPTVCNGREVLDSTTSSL
Experimental: Example 89: Human mGluR3 Positive Allosteric Modulator Evaluation Using Ca++ Functional Assay
Compounds of the present invention were tested successively for their agonist and positive allosteric modulator activities on human mGluR3 (hmGluR3) transiently over-expressed in HEK-293 cells. Compounds exert agonist activity if they are able to activate hmGluR3 by themselves, i.e., in absence of the endogenous agonist glutamate; and they exert positive allosteric modulator activity if they increase the action of the endogenous agonist glutamate.
Cell Culture and Transfection:
HEK-293 cells were maintained in Modified Eagle's Medium supplemented with 10% Foetal Calf Serum, 1% Penicillin/Streptomycin and 1% non-essential amino acids at 37° C./5% CO2. Cells were co-transfected by electroporation with four DNA plasmids encoding hmGluR3, a chimeric G protein allowing redirection of the activation signal toward intracellular calcium pathway, and two glutamate transporters so as to decrease extracellular glutamate levels and avoid receptor desensitization (Brabet I et al., Neuropharmacology 37(8), 1043-51, 1998). After transfection, cells were seeded in 75 cm^2 culture flasks, and cultured for 24 h.
Calcium Assa EC50 determination:
Receptor activity was detected by changes in intracellular calcium measured using the fluorescent Ca^2+ sensitive dye, Fluo4AM (Molecular Probes).
The day of the assay, medium was aspirated and replaced during 3 hrs by freshly prepared buffer B (HBSS 1×, Hepes 20 mM, MgSO4-7H2O 1 mM, Na2CO3 3.3 mM, CaCl2-2H2O 1.3 mM, 0.5% BSA, Probenecid 2.5 mM). Then, cells were loaded at 37° C./5% CO2 for 1.5 hrs with buffer B containing 1 μM Fluo4AM, 0.1 mg/mL Pluronic Acid, 7 μg/mL Glutamate Pyruvate Transaminase and 2 mM sodium pyruvate. Afterwards cells were washed with buffer B. Cells were then detached from the 75 cm^2 culture flasks with Accutase® (5 min incubation at 37° C.), centrifuged (5 min at 840 rpm), resuspended in buffer B and finally seeded at a density of 30,000 cells/well in black-walled clear-bottom 384-well plates. Addition of compounds on cells and intracellular Ca^2+ measurements (excitation 485 nm, emission 525 nm) were performed by the fluorescence microplate reader FLIPR Tetra (Molecular Devices).
Agonist and positive allosteric modulator activities of compounds were consecutively evaluated on the same cells plate. Agonist activity was first tested during 10 min with the addition of compound alone on the cells. Then, the cells were stimulated by an EC50 glutamate concentration and fluorescence was recorded for additional 3 min. EC50 glutamate concentration is the concentration giving 50% of the maximal glutamate response. Agonist and/or positive allosteric modulator activity(ies) were evaluated in comparison to basal signal or signal evoked by EC50 glutamate concentration alone, respectively.
For potency determination, a dose-response test was performed using 20 concentrations of each compound of the invention. Dose-response curves were fitted using the sigmoïdal dose-response (variable slope) analysis in XLfit Scientific Curve Fitting for Excel (IDBS). EC50 of agonist/EC50 of positive allosteric modulator activity(ies) were calculated. Dose-response experiments were all performed in duplicate, two times independently.

| melting point | EC50 [1] | Compound |
| --- | --- | --- |
| > 250 °C | – | Cc1ncccc1-c1ccc2c(c1)-c1ccccc1C(=O)N(C)C21CC1 (as salt: hydrochloride) [Example 21, 10-(2-Methyl-pyridin-3-yl)-6-methyl-6,7-dihydro-spiro[dibenzo[c,e]azepine-7,1′-cyclopropan]-5-one, hydrochloride] |
| > 250 °C | – | Cc1ncccc1-c1cc2c(nn1)CN(C)C(=O)c1cccn1-2 (as salt: hydrochloride) [Example 8, 5-Methyl-9-(2-methyl-pyridin-3-yl)-5,6-dihydro-5,7,8,10b-tetraaza-benzo[e]azulen-4-one, dihydrochloride] |
| 198 to 200 °C | – | COCn1cc2c(n1)C(=O)N(C)C1(CC1)c1ccc(-c3ccc(F)nc3)cc1-2 [Example 75, 2-(Methoxymethyl)-5-methyl-9-(6-fluoro-pyridin-3-yl)-2H-spiro[benzo[c]pyrazolo[4,3-e]azepine-6,1′-cyclopropan]-4(5H)-one] |
| 219 to 223 °C | < 100 nM | COCn1cc2c(n1)C(=O)N(C)C1(CC1)c1ccc(-c3ccc(F)cn3)cc1-2 [Example 76, 2-(Methoxymethyl)-5-methyl-9-(5-fluoro-pyridin-2-yl)-2H-spiro[benzo[c]pyrazolo[4,3-e]azepine-6,1′-cyclopropan]-4(5H)-one] |
| > 250 °C | – | Cc1ncccc1-c1cnc2c(c1)-n1cccc1C(=O)N(C)C2 (as salt: hydrochloride) [Example 6, 5-Methyl-9-(2-methyl-pyridin-3-yl)-5,6-dihydro-5,7,10b-triaza-benzo[e]azulen-4-one, dihydrochloride] |
| – | 100 to 1000 nM | COCn1cc2c(n1)C(=O)N(C)Cc1ccc(-c3ccc(F)nc3)cc1-2 [Example 66, 2-Methoxymethyl-5-methyl-9-(6-fluoro-pyridin-3-yl)-5,6-dihydro-2H-2,3,5-triaza-benzo[e]azulen-4-one] |
| – | 100 to 1000 nM | COc1ccc2c(n1)C(=O)N(C)C1(CC1)c1ccc(Cl)cc1-2 [Example 52, 10-chloro-3-methoxy-6-methylspiro[benzo[c]pyrido[3,2-e]azepine-7,1′-cyclopropan]-5(6H)-one] |
| – | > 10000 nM | CN1Cc2ncc(-c3ccc4nccn4c3)cc2-n2cccc2C1=O [Example 12, 9-Imidazo[1,2-a]pyridin-6-yl-5-methyl-5,6-dihydro-5,7,10b-triaza-benzo[e]azulen-4-one] |
| – | 1000 to 10000 nM | COCCn1cc2c(n1)C(=O)N(C)Cc1ccc(-c3cccnc3C)cc1-2 [Example 72, 2-(2-Methoxy-ethyl)-5-methyl-9-(2-methyl-pyridin-3-yl)-5,6-dihydro-2H-2,3,5-triaza-benzo[e]azulen-4-one] |
| – | 1000 to 10000 nM | Cc1ncccc1-c1ccc2c(c1)-c1c[nH]nc1C(=O)N(C)C2 [Example 57, 5-Methyl-9-(2-methyl-pyridin-3-yl)-5,6-dihydro-2H-2,3,5-triaza-benzo[e]azulen-4-one] |
| > 250 °C | – | Cc1ncccc1-c1cnc2c(n1)-n1cccc1C(=O)N(C)C2 (as salt: hydrochloride) [Example 7, 5-Methyl-9-(2-methyl-pyridin-3-yl)-5,6-dihydro-5,7,10,10b-tetraaza-benzo[e]azulen-4-one, dihydrochloride] |
| – | 1000 to 10000 nM | Cc1ncccc1-c1ccc2c(c1)-c1ccc(F)nc1C(=O)N(C)C2 [Example 30, 3-Fluoro-6-methyl-10-(2-methyl-pyridin-3-yl)-6,7-dihydro-4,6-diaza-dibenzo[a, c]cyclohepten-5-one] |
